This is an account of results in patent US12194029B1, “Ethyl-1-(substitutedbenzoyl)-5-methylpyrrolo[1,2-a]quinoline-3-carboxylates as anticancer agents” (KING FAISAL UNIVERSITY, priority 2023, dated 2025).

In test [1] the test system is adeno carcinomic human alveolar basal epithelial cell line (A-549). Nature of the test: MTT cell viability / in vitro cytotoxicity assay, A-549. The note with it: A549, A-549 cells, 48 h incubation, read-out: anticancer IC50 A-549. Format: cell-based. Here is the method:
(§1) The human breast cancer cell line (MCF-7), and adeno carcinomic human alveolar basal epithelial cell line (A-549), were used in the present study for the investigation of cell viability assay of the synthesized compounds.
(§2) The cells were seeded in a 96-well flat-bottom microplate and maintained at 37° C. in 95% humidity and 5% CO2 overnight. The microplates were then treated with different concentrations (5-100 μM) of the samples. The cells were incubated for another 48 h. The wells were washed twice with PBS and 20 μL of the MTT staining solution was added to each well and the plate was incubated at 37° C. After 4 h, 100 μL of DMSO was added to each well to dissolve the formazan crystals and absorbance was recorded with a 570 nm using a microplate reader.
(§3) In vitro cytotoxicity was performed by 3-(4,5-dimethylthiazol-2-yl)-2,5-di-phenyltetrazolium bromide (MTT) assay. Tested compounds were dissolved in DMSO by heating at 95° C. for 10 min, cooled at room temperature and final stock concentration of 1 mg/mL was prepared in DMEM (final DMSO concentration was <1%). The stock solutions were serially diluted to obtain the concentration range of 25 to 400 μM using DMEM, and cells were treated in triplicates. Untreated cells represented a control group and pac. treated as a positive control. After 48 h of incubation, the media was aspirated, 100 μL MTT (1 mg/mL) was added to each well and the plate was incubated at 37° C. for 4 h. After incubation, the media/MTT solution was aspirated and 100 μL DMSO was added to all the wells. Using a multi-mode microplate reader, a uniform shaking (for 5 min) was applied to dissolve Formazan crystals and the absorbance was recorded at 570 nm. Cell viability was calculated using the following equation: […]
(§4) The 50% […] inhibitory concentration (IC50) was determined using Prism software version 7. Using graph Pad Prism Version 5.1, IC50 values of the compounds were calculated.
(§5) Statistical analysis of the cytotoxicity data was performed on GraphPad Prism. All cytotoxicity experiments were conducted in triplicates. Results were analyzed as the standard error of the mean (SEM) and one-way analysis of variance (ANOVA) and the Dunnet multiple comparison test was used to evaluate the treated groups and the control. Further Bonferroni post-tests were performed for comparison of the complex with cis-platin. Differences were considered significant when p<0.05.

Test [2] has as its system human breast cancer cell line (MCF-7). Nature of the test: MTT cell viability / in vitro cytotoxicity assay, MCF-7. Format: cell-based. The note with it: MCF7, MCF-7 cells, 48 h incubation, read-out: anticancer IC50 MCF-7. Here is the method: as §1, §2, §3, §4, §5

What is called IC50 is the midpoint of a concentration-inhibition curve. For the compound `COC(=O)c1c(C(=O)OC)c2cc(C)c3ccccc3n2c1C(=O)c1cc(C(F)(F)F)cc(C(F)(F)F)c1` [Compound 3a, Dimethyl-1-(3,5-bis(trifluoromethyl)benzoyl)-5-methylpyrrolo[1,2-a]quinoline-2,3-dicarboxylate], the half-inhibitory concentration (IC50) in test [1] was found to be 433 nM; in test [2], 272 nM.
The like results for `CCOC(=O)c1cc(C(=O)c2cc(C(F)(F)F)cc(C(F)(F)F)c2)n2c1cc(C)c1ccccc12` [Compound 3b, Ethyl-1-(3,5-bis(trifluoromethyl)benzoyl)-5-methylpyrrolo[1,2-a]quinoline-3-carboxylate] were, in that order, 99 nM and 27 nM.
The like results for `COC(=O)c1c(C(=O)OC)c2cc(C)c3ccccc3n2c1C(=O)c1ccccc1[N+](=O)[O-]` [Compound 3c, Dimethyl-5-methyl-1-(2-nitrobenzoyl)pyrrolo[1,2-a]quinoline-2,3-dicarboxylate] were, in that order, 316 nM and 15 nM.
Regarding `CCOC(=O)c1cc(C(=O)c2ccccc2[N+](=O)[O-])n2c1cc(C)c1ccccc12` [Compound 3d, Ethyl-5-methyl-1-(2-nitrobenzoyl)pyrrolo[1,2-a]quinoline-3-carboxylate], the IC50 in test [1] is 291 nM; in test [2], 85 nM.
The like results for `COC(=O)c1c(C(=O)OC)c2cc(C)c3ccccc3n2c1C(=O)c1ccc(F)cc1` [Compound 3i, Dimethyl-1-(4-fluorobenzoyl)-5-methylpyrrolo[1,2-a]quinoline-2,3-dicarboxylate] were, in that order, 183 nM and 209 nM.
